IC50 data for 34 compounds are collected here from PubChem BioAssay AID651650 (Sanford-Burnham Center for Chemical Genomics, 2012).

Activity calls are given as the source filed them.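 How the source made its calls: active means mean IC50 below 20 µM in each of the two panels, so potent in both; inactive means the rest.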

This experiment concerns the target Neuropilin-1 (Homo sapiens) (UniProt O14786). Kind of experiment: blockers of CendR peptide binding to NRP-1 – biochemical, FP and AlphaScreen panel, dose response (AID 651650). Conditions: NRP-1 b1b2 / RPARPAR peptide binding, FP or AlphaScreen. Background: Alpha assays give light when donor and acceptor beads are brought close together.
The mark [1] stands for this setting: AlphaScreen, run 1, individual panel run IC50.
Where [2] appears, read: FP, run 1, individual panel run IC50.
Where [3] appears, read: FP, run 2, individual panel run IC50.

What is called IC50 is the concentration at which inhibition is half-maximal.

Chain of Neuropilin-1 (Homo sapiens) (O14786 whole entry, looked up): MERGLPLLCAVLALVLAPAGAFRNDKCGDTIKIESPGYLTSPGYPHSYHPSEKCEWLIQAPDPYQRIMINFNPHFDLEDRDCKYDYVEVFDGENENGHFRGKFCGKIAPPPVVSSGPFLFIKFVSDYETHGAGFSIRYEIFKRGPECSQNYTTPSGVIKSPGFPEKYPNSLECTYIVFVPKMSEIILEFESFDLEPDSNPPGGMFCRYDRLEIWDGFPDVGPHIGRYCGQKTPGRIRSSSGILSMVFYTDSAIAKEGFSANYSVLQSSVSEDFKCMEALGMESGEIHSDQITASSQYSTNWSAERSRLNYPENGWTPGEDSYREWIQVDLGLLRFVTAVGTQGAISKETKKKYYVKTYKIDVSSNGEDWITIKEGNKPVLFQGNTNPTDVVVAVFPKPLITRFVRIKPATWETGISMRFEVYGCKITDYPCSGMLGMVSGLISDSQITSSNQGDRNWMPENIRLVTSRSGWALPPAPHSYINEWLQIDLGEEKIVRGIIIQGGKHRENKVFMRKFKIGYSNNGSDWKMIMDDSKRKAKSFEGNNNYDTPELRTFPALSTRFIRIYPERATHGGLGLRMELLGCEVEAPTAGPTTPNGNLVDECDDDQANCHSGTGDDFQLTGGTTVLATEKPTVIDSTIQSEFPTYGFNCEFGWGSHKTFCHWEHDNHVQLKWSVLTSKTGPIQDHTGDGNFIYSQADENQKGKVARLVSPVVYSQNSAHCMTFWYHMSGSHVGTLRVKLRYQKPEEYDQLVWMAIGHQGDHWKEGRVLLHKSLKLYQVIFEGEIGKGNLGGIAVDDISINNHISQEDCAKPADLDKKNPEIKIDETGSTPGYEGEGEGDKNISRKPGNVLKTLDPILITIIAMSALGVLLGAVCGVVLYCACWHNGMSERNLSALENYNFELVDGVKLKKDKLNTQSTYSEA

With `O=C(Nc1ccc(N2CCOCC2)cc1)c1cc(-n2cnnc2)ccc1Cl`, the IC50 reads like this: (AlphaScreen, mean of runs) > 100 µM (inactive); under setting [1], greater than 100 µM; (FP, mean of runs) > 95 µM (inactive); under setting [2], greater than 95 µM; under setting [3], greater than 95 µM.
As to `CC(=O)Nc1ccc2nc3c(=O)n(C)c(=O)n(C)c3nc2c1`, the IC50 result (AlphaScreen, mean of runs) was “inactive”. For the same compound, the IC50 is, setting by setting: under setting [1], 57.6 µM; (FP, mean of runs) > 95 µM (inactive); under setting [2], greater than 95 µM; under setting [3], greater than 95 µM.
For `CCOC(=O)c1cnc(-c2ccccc2)nc1Oc1ccc(OC)cc1`, the IC50 is 10.4 µM (AlphaScreen, mean of runs); 10.4 µM under setting [1]; 19.9 µM (FP, mean of runs); 17.9 µM under setting [2]; 21.8 µM under setting [3].
Regarding `COC(=O)c1cccc(NC(=S)NCCC2=CCCCC2)c1`, the IC50 was > 100 µM (inactive) (AlphaScreen, mean of runs); greater than 100 µM under setting [1]; > 95 µM (inactive) (FP, mean of runs); greater than 95 µM under setting [2]; greater than 95 µM under setting [3].
In the case of `CCOc1c2ccc(C(=O)NCCc3cccs3)cc2nn1CC`, the IC50 (AlphaScreen, mean of runs) was > 100 µM (inactive); the IC50 under setting [1] is greater than 100 µM; the IC50 (FP, mean of runs) is > 95 µM (inactive); the IC50 under setting [2] is greater than 95 µM; the IC50 under setting [3] is greater than 95 µM.
Consider `CN(C)CCOC(c1ccc(Cl)cc1)c1ccccn1` (stereo not given), for which the IC50 runs as follows: (AlphaScreen, mean of runs) > 100 µM (inactive); under setting [1], greater than 100 µM; (FP, mean of runs) > 95 µM (inactive); under setting [2], greater than 95 µM; under setting [3], greater than 95 µM.
With `O=C(CSc1nc(O)c(Cc2ccccc2)c(=O)n1-c1ccccc1)N1CCOCC1`, the IC50 is > 100 µM (inactive) (AlphaScreen, mean of runs); greater than 100 µM under setting [1]; > 95 µM (inactive) (FP, mean of runs); greater than 95 µM under setting [2]; greater than 95 µM under setting [3].
For `Cc1nc(Nc2ccc(S(N)(=O)=O)cc2)oc1C`, the IC50 entry (AlphaScreen, mean of runs) was “inactive”. Besides, the IC50 is 73.1 µM under setting [1]; > 95 µM (inactive) (FP, mean of runs); greater than 95 µM under setting [2]; greater than 95 µM under setting [3].
In the case of `CCn1c(=O)c(C(=O)NCCNCCO)c(O)c2ccccc21`, the IC50 (AlphaScreen, mean of runs) is > 100 µM (inactive); the 50% inhibitory concentration (IC50) under setting [1] was greater than 100 µM; the IC50 (FP, mean of runs) was > 95 µM (inactive); the half-inhibitory concentration (IC50) under setting [2] was greater than 95 µM; the IC50 under setting [3] was greater than 95 µM.
Take `CC1CCC(NC(=O)C2CCC(CNS(=O)(=O)c3cccc4cccnc34)CC2)CC1` (stereo not given): the IC50 reads like this: (AlphaScreen, mean of runs) > 100 µM (inactive); under setting [1], greater than 100 µM; (FP, mean of runs) > 95 µM (inactive); under setting [2], greater than 95 µM; under setting [3], greater than 95 µM.
Take `Cc1onc(-c2ccc(Cl)cc2Cl)c1-c1csc(COc2ccccc2)n1`: the IC50 result (AlphaScreen, mean of runs) is “inactive”. Further, the IC50 is, setting by setting: under setting [1], 59.1 µM; (FP, mean of runs) > 95 µM (inactive); under setting [2], greater than 95 µM; under setting [3], greater than 95 µM.
On to `Clc1nc(-c2ccccn2)nc2scc(-c3ccccc3)c12`, for which the IC50 is > 100 µM (inactive) (AlphaScreen, mean of runs); greater than 100 µM under setting [1]; > 95 µM (inactive) (FP, mean of runs); greater than 95 µM under setting [2]; greater than 95 µM under setting [3].
For `CC1(C)S[C@@H]2[C@H](NC(=O)COc3ccccc3)C(=O)N2C1C(=O)OCc1ccccc1` (stereo not given in full), the IC50 was > 100 µM (inactive) (AlphaScreen, mean of runs); greater than 100 µM under setting [1]; > 95 µM (inactive) (FP, mean of runs); greater than 95 µM under setting [2]; greater than 95 µM under setting [3].
With `Cc1cc2c(cc1C)NC(c1nc3ccccc3[nH]1)C1=C(CC(C)(C)CC1=O)N2` (stereo not given), the IC50 reads like this: (AlphaScreen, mean of runs) > 100 µM (inactive); under setting [1], greater than 100 µM; (FP, mean of runs) > 95 µM (inactive); under setting [2], greater than 95 µM; under setting [3], greater than 95 µM.
On to `NC(N)=NCCC[C@H](NC(=O)OCc1ccccc1)C(=O)O`, for which the IC50 is > 100 µM (inactive) (AlphaScreen, mean of runs); greater than 100 µM under setting [1]; > 95 µM (inactive) (FP, mean of runs); greater than 95 µM under setting [2]; greater than 95 µM under setting [3].
Take `COC(=O)CCCC1=CC2=CC(=O)C(C)(OC(=O)c3cccs3)C(=O)C2=CN1CCCOC(C)C` (stereo not given): the IC50 by setting is: (AlphaScreen, mean of runs) 5.63 µM; under setting [1], 5.63 µM; (FP, mean of runs) > 95 µM (inactive); under setting [2], greater than 95 µM; under setting [3], greater than 95 µM.
For `Cn1cnc2cc(NC(=O)c3ccco3)ccc21`, the IC50 reads like this: (AlphaScreen, mean of runs) 18.5 µM; under setting [1], 18.5 µM; (FP, mean of runs) > 95 µM (inactive); under setting [2], greater than 95 µM; under setting [3], greater than 95 µM.
With `COc1ccccc1N1CCN(C(=O)C2c3ccccc3Oc3ccccc32)CC1`, the IC50 (AlphaScreen, mean of runs) is > 100 µM (inactive); the half-inhibitory concentration (IC50) under setting [1] was greater than 100 µM; the IC50 (FP, mean of runs) was > 95 µM (inactive); the IC50 under setting [2] was greater than 95 µM; the IC50 under setting [3] was greater than 95 µM.
Take `O=C(NCc1ccccc1)c1cccc(S(=O)(=O)N2CCCCC2)c1`: the IC50 entry (AlphaScreen, mean of runs) was “inactive”. Also, the IC50 under setting [1] amounted to 39.8 µM; the IC50 (FP, mean of runs) was > 95 µM (inactive); the IC50 under setting [2] is greater than 95 µM; the IC50 under setting [3] is greater than 95 µM.
For the compound `CC(=O)Nc1cccc(-c2csc(NCc3ccccc3)n2)c1`, the IC50 is > 100 µM (inactive) (AlphaScreen, mean of runs); greater than 100 µM under setting [1]; > 95 µM (inactive) (FP, mean of runs); greater than 95 µM under setting [2]; greater than 95 µM under setting [3].
In the case of `O=C(c1ccc(-c2cccc(C(F)(F)F)c2)o1)N1CCCC(C(F)(F)F)C1` (stereo not given), the IC50 runs as follows: (AlphaScreen, mean of runs) > 100 µM (inactive); under setting [1], greater than 100 µM; (FP, mean of runs) > 95 µM (inactive); under setting [2], greater than 95 µM; under setting [3], greater than 95 µM.
With `Cc1ccc(S(=O)(=O)NCC(=O)N(c2ccccc2)C(C(=O)NCc2ccccc2)c2ccco2)cc1` (stereo not given), the IC50 runs as follows: (AlphaScreen, mean of runs) > 100 µM (inactive); under setting [1], greater than 100 µM; (FP, mean of runs) > 95 µM (inactive); under setting [2], greater than 95 µM; under setting [3], greater than 95 µM.
Take `CN(C)/N=C/c1ccc(Sc2ccc([N+](=O)[O-])cc2[N+](=O)[O-])o1`: the IC50 entry (AlphaScreen, mean of runs) is “inactive”. For the same compound, the IC50 under setting [1] is 85.7 µM; the IC50 (FP, mean of runs) was > 95 µM (inactive); the IC50 under setting [2] is greater than 95 µM; the IC50 under setting [3] is greater than 95 µM.
On to `O=C(CCCNC(=O)/C(=C\c1ccc(F)cc1)NC(=O)c1ccccc1)OCc1ccccc1`, for which the IC50 was > 100 µM (inactive) (AlphaScreen, mean of runs); greater than 100 µM under setting [1]; > 95 µM (inactive) (FP, mean of runs); greater than 95 µM under setting [2]; greater than 95 µM under setting [3].
With `C=CCOc1ccc(C2/C(=C(\O)c3c(C)[nH]c(C(=O)OC)c3C)C(=O)C(=O)N2CCN(C)C)cc1` (stereo not given), the IC50 was > 100 µM (inactive) (AlphaScreen, mean of runs); greater than 100 µM under setting [1]; > 95 µM (inactive) (FP, mean of runs); greater than 95 µM under setting [2]; greater than 95 µM under setting [3].
As for `O=C(COC(=O)C1CC(=O)N(Cc2ccccc2)C1)Nc1ccccc1F` (stereo not given), for the setting “AlphaScreen, mean of runs”, the IC50 result was “inactive”. The IC50 runs as follows: under setting [1], 44.6 µM; (FP, mean of runs) > 95 µM (inactive); under setting [2], greater than 95 µM; under setting [3], greater than 95 µM.
Consider `Cc1ccc(C(=O)N2CCN(C34CC5CC(CC(C5)C3)C4)CC2)o1`, for which, for the setting “AlphaScreen, mean of runs”, the IC50 result was “inactive”. The IC50 under setting [1] came to 75.4 µM; the IC50 (FP, mean of runs) is > 95 µM (inactive); the IC50 under setting [2] was greater than 95 µM; the IC50 under setting [3] was greater than 95 µM.
For `COc1ccc(OCC(=O)O/N=C(\N)Cc2ccc(Cl)cc2Cl)cc1`, under “AlphaScreen, mean of runs”, the IC50 result is “inactive”. Moreover, the IC50 under setting [1] came out at 55.3 µM; the IC50 (FP, mean of runs) was > 95 µM (inactive); the half-inhibitory concentration (IC50) under setting [2] is greater than 95 µM; the IC50 under setting [3] is greater than 95 µM.
On to `CCC(=O)Nc1nc2nc(-c3ccccc3)cc(-c3ccccc3)n2n1`, for which the IC50 is > 100 µM (inactive) (AlphaScreen, mean of runs); greater than 100 µM under setting [1]; > 95 µM (inactive) (FP, mean of runs); greater than 95 µM under setting [2]; greater than 95 µM under setting [3].
Take `CC(=O)/C(=N\Nc1ccc(Cl)cc1Cl)Sc1cccc2cccnc12`: the IC50 is, setting by setting: (AlphaScreen, mean of runs) > 100 µM (inactive); under setting [1], greater than 100 µM; (FP, mean of runs) > 95 µM (inactive); under setting [2], greater than 95 µM; under setting [3], greater than 95 µM.
Regarding `CCCCc1ccc(S(=O)(=O)N2CCC3(CC2)OCCO3)cc1`, the IC50 runs as follows: (AlphaScreen, mean of runs) > 100 µM (inactive); under setting [1], greater than 100 µM; (FP, mean of runs) > 95 µM (inactive); under setting [2], greater than 95 µM; under setting [3], greater than 95 µM.
For `O=S(=O)(c1ccccc1)c1nc(-c2ccc(F)cc2)oc1N1CCOCC1`, the IC50 runs as follows: (AlphaScreen, mean of runs) > 100 µM (inactive); under setting [1], greater than 100 µM; (FP, mean of runs) > 95 µM (inactive); under setting [2], greater than 95 µM; under setting [3], greater than 95 µM.
For `COC(=O)N[C@@H]1C[C@H]2[C@@H]3CC[C@H]4C[C@@H](OC)CC[C@]4(C)[C@H]3CC[C@]12C`, under “AlphaScreen, mean of runs”, the IC50 result is “inactive”. Moreover, the IC50 under setting [1] is 69.5 µM; the IC50 (FP, mean of runs) was > 95 µM (inactive); the IC50 under setting [2] was greater than 95 µM; the IC50 under setting [3] is greater than 95 µM.
For `COc1ccc(C(=O)COC(=O)C(CCSC)NS(=O)(=O)c2ccc(Cl)cc2)cc1` (stereo not given), the IC50 is > 100 µM (inactive) (AlphaScreen, mean of runs); greater than 100 µM under setting [1]; > 95 µM (inactive) (FP, mean of runs); greater than 95 µM under setting [2]; greater than 95 µM under setting [3].
